Literature values in US12661368B2, “Maribavir isomers, compositions, methods of making and methods of using” (Takeda Pharmaceutical Company Limited, priority 2010, dated 2026).

Key:
cytomegalovirus (CMV) [1] = conditions: Phase 3, 300 Study, allogeneic SCT patients, prophylaxis
cytomegalovirus (CMV) [2] = conditions: Phase 2, 200 Study

CC(C)Nc1nc2cc(Cl)c(Cl)cc2n1[C@H]1O[C@@H](CO)[C@H](O)[C@@H]1O [maribavir, 5,6-dichloro-2-(isopropylamino)-1-(β-L-ribofuranosyl)-1H-benzimidazole]
key secondary endpoints of the study (cytomegalovirus (CMV) [1]): failed to meet its key secondary endpoints | reducing the rate of CMV disease, maribavir versus placebo (primary analysis) (cytomegalovirus (CMV) [1]; dosing fasted or fed): no statistically significant difference | tolerability profile (cytomegalovirus (CMV) [2]; administration for up to 12 weeks, SCT patients): favorable tolerability profile | rate of reactivation of CMV in recipients of allogeneic stem cell (bone marrow) transplants (cytomegalovirus (CMV) [2]; prophylaxis, fasted dosing protocol, preliminary results): significant reduction
